{"source": "patent US9463189B2", "about": "(BPV Holdings, LLC, priority 2007, dated 2016)", "key": {"TGFβ-1": {"test_system": "TGFβ-1", "assay": "TGFβ-1 levels in liver lysates of NASH mice", "format": "in vivo, C57B1/6J mice", "from_the_text": "(§1) Early Steatosis Model: C57B1/6J mice (22-39 days old) mice were used for the study. Mice were fed normal chow food (Lab Diet, 5P14Prolab Animal Diet, PMI Nutritional International, Brentwood, Mo., Cat# RMH 2500) or 58% high fat diet (HFD, 58 kcal % fat and corn starch with purple dye, Research Diets, New Brunswick, N.J., Cat# D12330 equivalent to Western diet) for 120-150 days. […] This group is referred to as the HFD-low body group in FIG. 1A (insulin & liver fat accumulation˜normal). On the other hand, one fifth of the mice gained 60-70% higher body weight (compared to normal chow fed mice) while on the same HFD diet (NASH group, very high insulin and liver fat) further shown in FIG. 1A. The majority of the mice (three fifths) gained body weight as expected on the HFD (30-40% higher than the normal chow fed mice) and is referred to as the DIO group (normal to moderately high insulin and liver fat accumulation) as shown in FIG. 1A. Control animals (n=5) representative of the HFD-low body weight and the NASH groups were sacrificed prior to starting the rest of the animals on treatment with the Compound 2 (5 or 10 mg/Kg/day). […]\n(§2) Following 120-150 days on the HFD, mice in the NASH group were treated with Compound 2 (5 or 10 mg/Kg/day) or vehicle (10% Encapsin) for 42 days. […] Body weight and food intake was measured throughout the study."}, "[1]": {"assay": "Body weight loss in NASH mice", "format": "in vivo, C57B1/6J mice", "conditions": "oral administration, p<0.05 vs. vehicle", "from_the_text": "as §1, §2"}, "NASH mice [2]": {"test_system": "NASH mice", "assay": "Serum transaminases AST and ALT in HFD-induced NASH mice (clinical chemistry panel)", "format": "in vivo, C57B1/6J mice", "from_the_text": "(§3) Early Steatosis Model: C57B1/6J mice (22-39 days old) mice were used for the study. Mice were fed normal chow food (Lab Diet, 5P14Prolab Animal Diet, PMI Nutritional International, Brentwood, Mo., Cat# RMH 2500) or 58% high fat diet (HFD, 58 kcal % fat and corn starch with purple dye, Research Diets, New Brunswick, N.J., Cat# D12330 equivalent to Western diet) for 120-150 days. […] This group is referred to as the HFD-low body group in FIG. 1A (insulin & liver fat accumulation˜normal). On the other hand, one fifth of the mice gained 60-70% higher body weight (compared to normal chow fed mice) while on the same HFD diet (NASH group, very high insulin and liver fat) further shown in FIG. 1A. The majority of the mice (three fifths) gained body weight as expected on the HFD (30-40% higher than the normal chow fed mice) and is referred to as the DIO group (normal to moderately high insulin and liver fat accumulation) as shown in FIG. 1A. Control animals (n=5) representative of the HFD-low body weight and the NASH groups were sacrificed prior to starting the rest of the animals on treatment with the Compound 2 (5 or 10 mg/Kg/day). Liver, white adipose and muscle from the sacrificed mice were collected for histology performed on the liver tissue.\n(§4) Following 120-150 days on the HFD, mice in the NASH group were treated with Compound 2 (5 or 10 mg/Kg/day) or vehicle (10% Encapsin) for 42 days. Fasting and post prandial (PP) blood draws were taken at the beginning of the study (compound treatment) to identify and confirm the NASH group and during the study to evaluate various pharmacological responses. Since the NASH mice are severely hyperinsulinemic compared to NC mice, glucose tolerance testing (GTT, measures peripheral insulin resistance) was performed to evaluate the effect of Compound 2 on improvement of peripheral insulin sensitivity. Treatment was administered for 42 days (separate experiments). Body weight and food intake was measured throughout the study.\nTail blood was collected into EDTA capillary tubes (Becton, Dickinson and Company, Franklin Lakes, N.J., Cat #365973). Upon sacrifice, blood was collected by cardiac puncture using a 1 mL Syringe Tuberculin Slip Tip (Becton, Dickinson & Company, Cat #309602) and B-D25G 5/8 needle (Becton Dickinson, Franklin Lakes, N.J., Cat #305122) and saved into Microtainer brand tube with EDTA (Becton, Dickinson and Company, Cat #365973). The blood was spun for 8 minutes at 8500 rpm at 4° C. (Eppendorf, Centrifuge 5415R, New York, N.Y.). Plasma was collected and stored at −20° C. for further analyses\n80 μL EDTA plasma was diluted with 80 μL Dulbecco's phosphate buffered saline (Gibco, Grand Island, N.Y., Cat #14040-133) and analyzed in Olympus AU600 (Olympus, London, UK) for the following endpoints. The lower and upper limit ranges were according to the assay values provided by the JAS Diagnostics, INC (Miami, Fla.). • Glucose (LL 94-116, UL 297-353 mg/dL, Cat # JAS GLU2-125) • Triglycerides (LL 46-102, UL 128-168 mg/dL, Cat # TRI2-125) • ALT/GPT (LL 10-34, UL 64-114 U/L, Cat # JAS ALT2-125) • AST/GOT (LL 18-46, UL 121-187 U/L, Cat # JAS AST2-125) • Multi-Chemistry calibrator (Albumin: 3.9 g/dL, Cholesterol: 212 mg/dL, • Creatinine: 4.4 mg/dL, Glucose: 220 mg/dL, Triglycerides: 116 mg/dL, Cat # JAS CAL1-5) • Multi-Chemistry control level 1 (Range: See above for each constituent, Cat # JAS CON1-5) • Multi-Chemistry control level 2 (Range: See above for each constituent, Cat # JAS CON2-5)"}, "NASH mice [3]": {"test_system": "NASH mice", "assay": "Hepatic steatosis / lipid accumulation in liver, Oil Red O stain image analysis", "format": "in vivo, C57B1/6J mice", "from_the_text": "as §3\nThe development of NASH was further confirmed using histological analyses of liver. The sections were analyzed for 1) hepatic steatosis 2) necroinflammation, and 3) fibrosis. Histological analyses of hepatic steatosis was assessed by quantitative image analysis of Oil Red O stain in liver sections and defined as the percentage of Oil Red ‘O’ positive area relative to the total image area.\nas §4\nStaining was prepared with Oil Red ‘O’ that stains fat deposits red on frozen tissues where positive staining indicates lipid accumulation. Trichrome staining was used to illuminate fibrosis; collagen deposits appear blue and positive staining indicates fibrosis."}, "PPAR": {"test_system": "PPAR", "conditions": "shown in US2006/0167012A1 and US2006/0205736A1; cited from earlier work"}, "MCP-1": {"test_system": "MCP-1", "assay": "MCP-1 in plasma and liver lysates (immunoassay)", "format": "in vivo, C57B1/6J mice", "description": "as §4\nInsulin fasting plasma samples were tested using Mercodia ultra sensitive mouse insulin ELISA: 2.5 μL EDTA plasma, ALPCO Diagnostics, Uppsala, Sweden, Cat #08-10-1150-99, LOQ (0.22-7.1 μg/L). Mouse JE/MCP-1 post prandial samples were collected at sacrifice. 12.5 μL EDTA plasma, R & D Systems, Minneapolis, Minn., Cat # MFE00, LOQ (15.6-1000 pg/mL)."}, "[4]": {"conditions": "oral administration, NASH mice, p<0.05 vs. vehicle"}}, "note": "Counter-ions that a name gives are not always drawn.", "data": [{"smiles": "C[C@@H]1CN(Cc2ccc(OC(F)(F)F)cc2)C[C@H](C)N1S(=O)(=O)c1cccc2c1C[C@@H](C(=O)O)C2", "note": "[Compound 2, (S)-4-[cis-2,6-Dimethyl-4-(4-trifluoromethoxy-benzyl)-piperazine-1-sulfonyl]-indan-2-carboxylic acid tosylate]", "values": [{"measurement": "decrement of TGFβ levels in the liver lysates", "setting": "TGFβ-1; 10 mg/Kg/day, p<0.01, FIG. 3A", "result": 49, "unit": "%"}, {"measurement": "levels of inflammatory marker TGFβ-1", "setting": "TGFβ-1; [4]", "result": "normalized levels"}, {"measurement": "weight loss", "setting": "[1]", "result": "increased weight loss"}, {"measurement": "reduction in AST compared to the vehicle group", "setting": "NASH mice [2]; 42 days of 5 mg/kg/day, p<0.02", "result": 43, "unit": "%"}, {"measurement": "reduction in ALT compared to the vehicle group", "setting": "NASH mice [2]; 42 days of 5 mg/kg/day, p<0.05", "result": 43, "unit": "%"}, {"measurement": "ALT serum level, treated group", "setting": "NASH mice [2]; 42 days of 5 mg/kg/day, vehicle 108±15, in U/L", "result": "62±13"}, {"measurement": "AST serum level, treated group", "setting": "NASH mice [2]; 42 days of 5 mg/kg/day, vehicle 201±23, in U/L", "result": "115±19"}, {"measurement": "levels of serum transaminases AST and ALT", "setting": "NASH mice [2]; oral administration, summary", "result": "reduced levels"}, {"measurement": "fat accumulation in the livers of treated vs. non-treated NASH mice", "setting": "NASH mice [3]; 42 days of 10 mg/kg/day", "result": "reduced fat accumulation"}, {"measurement": "Percent Field Area, Lipid (stained oil deposits)", "setting": "NASH mice [3]; HFD + Compound 2, 10 mg/kg, 42 days, liver sections, HFD + Vehicle 47.7% +/− 5.5", "result": 16.0, "unit": "% +/− 7.6"}, {"measurement": "Percent Field Area, Cytoplasm", "setting": "NASH mice [3]; HFD + Compound 2, 10 mg/kg, 42 days, liver sections, HFD + Vehicle 91% +/− 2.4", "result": 38.6, "unit": "% +/− 2.3"}, {"measurement": "reduced lipid accumulation in the liver", "setting": "NASH mice [3]; oral administration, NASH mice, p<0.03 vs. vehicle", "result": 32, "unit": "%"}, {"measurement": "PPAR modulator activity", "setting": "PPAR", "result": "PPAR modulators"}, {"measurement": "reduction of MCP-1 levels in plasma, treated vs. untreated mice", "setting": "MCP-1; 42 days of 5 mg/kg/day, p<0.006", "result": 34, "unit": "%"}, {"measurement": "reduction of MCP-1 levels in the liver lysates, treated vs. untreated mice", "setting": "MCP-1; 42 days of 5 mg/kg/day, trend, p=0.08", "result": 31, "unit": "%"}, {"measurement": "levels of plasma MCP-1", "setting": "MCP-1; [4]", "result": "normalized levels"}]}]}
